# From patent US20240277684A1, “BLOCKADE OF CHEMOKINE (C-C MOTIF) RECEPTOR 2 DURING FLUID RESUSCITATION” (University of South Florida, priority 2022, published 2024)
# Columns and labels:
# [1] = test system: hemorrhagic shock; experiment: Example 2 Series 1: 30 min hemorrhagic shock, fluid resuscitation until t=90 min; format: in vivo, rat
# Description: (§1) The hemorrhagic shock models were performed as described previously, with slight modifications (DeSantis A J, et al., The Chemokine (C-C Motif) Receptor 2 Antagonist INCB3284 Reduces Fluid Requirements and Protects From Hemodynamic Decompensation During Resuscitation From Hemorrhagic Shock. Crit Care Explor 2022;4(5):e0701; Bach H H, et al., Chemokine (C-X-C motif) receptor 4 and atypical chemokine receptor 3 regulate vascular alpha(1)-adrenergic receptor function. Mol Med 2014; 20:435-47; Nassoiy S P, et al., Effects of the Kv7 voltage activated potassium channel inhibitor linopirdine in rat models of hemorrhagic shock. Clin Exp Pharmacol Physiol 2018. doi: 10.1111/1440-1681.12958. PubMed PMID: 29702725; Bach H H, et al., Proteasome inhibition prolongs survival during lethal hemorrhagic shock in rats. J Trauma Acute Care Surg 2013; 74(2):499-507). In brief, anesthesia induction was performed with the animal and isoflurane-soaked gauze placed in a bell jar. After anesthesia induction, the animals were transferred to the operative field and anesthesia was maintained with 2.7% isoflurane administered via nose-cone inhalation with the SomnoSuite small animal anesthesia system (Kent Scientific Corporation, Torrington, CT, USA). […] Using a direct cut-down technique, the left femoral artery was isolated and cannulated with a 24-gauge peripheral intravenous catheter to allow for blood withdrawal, hemodynamic monitoring, drug administration, and fluid resuscitation. After catheter placement, isoflurane was decreased to 1.5%. Hemodynamics were continuously monitored with the Surgivet invasive blood pressure monitor (Med-Electronics, Beltsville, MD, USA). Blood pressures were recorded at 1-5 min intervals during the hemorrhage and resuscitation periods. Four subsequent series of experiments were performed. All experiments in each series were performed in alternating order. In all experiments animals were continuously monitored and remained under general anesthesia until euthanasia or death, as defined by asystole or loss of pulse pressure.
# Series 1: To assess the effects of SB328437 treatment after hemorrhagic shock and fluid resuscitation, and to be able to compare findings with the previous study on the effects of CCR2 and CCR5 inhibition, rats were hemorrhaged to a mean arterial blood pressure (MAP) of less than or equal to 30 mmHg for a period of 30 minutes. At the end of the hemorrhagic shock period (t=30 min), animals were injected with either vehicle (1 mL lactated Ringer's solution (LR), n=5), 0.25 μmol/kg SB328437 (n=3) or 1.1 μmol/kg SB328437 (n=3) in 1 mL LR, followed by fluid resuscitation with 1 mL bolus injections of LR to maintain a systolic blood pressure of 90 mm Hg or an MAP of 60 mm Hg until t=90 min, as described. To avoid fluid overload, bolus injections of LR were limited to 1 mL/min. At t=90 min, surviving animals were euthanized (5% isoflurane inhalation, bilateral pneumothorax).
# [2] = test system: hemorrhagic shock; experiment: Example 2 Series 2: 60 min hemorrhagic shock, single dose, fluid resuscitation until t=300 min; format: in vivo, rat
# Description: as §1
# Series 2: Rats were hemorrhaged to a MAP of less than or equal to 30 mmHg for a period of 60 min, followed by fluid resuscitation until t=300 min as in Series 1. At the end of the hemorrhagic shock period (t=60 min), animals were injected with 1 mL of normal saline (NS) (n=6), 5 μmol/kg (n=6) INCB3284 in 1 mL NS or 1.1 μmol/kg SB 328437 (n=6) in 1 mL NS at t=60 min. At t=0 min, 60 min, 120 min, 180 min, 240 min and 300 min, blood samples (0.3 ml) were obtained and used for arterial blood gas analyses and measurements of routine laboratory parameters. At t=300 min, surviving animals were euthanized (5% isoflurane inhalation, bilateral pneumothorax).
# Arterial blood gases and routine laboratory parameters. Arterial blood gases, electrolytes, creatinine, lactate, hematocrit and hemoglobin were analyzed using the Element point of care veterinary blood gas, electrolyte and critical care analyzer (Cuattro Veterinary USA, Loveland, CO, USA).
# [3] = test system: severe hemorrhagic shock; experiment: Example 2 Series 4: lethal hemorrhage without fluid resuscitation; format: in vivo, rat; conditions: 5 μmol/kg INCB3284 or 1 μmol/kg SB328437 after 40% TBV hemorrhage
# Description: as §1
# Series 4: The purpose of these experiments was to determine whether treatment with the chemokine receptor antagonists increases shock tolerance, blood pressure and survival time without additional fluid resuscitation. As such, death is an intentional endpoint. Earlier endpoints are unable to answer these questions and alternatives are not available. Rats were hemorrhaged 40% total blood volume (TBV) within 10 min. At t=15 min, animals were injected with vehicle (1 mL NS, n=3), 5 μmol/kg INCB3284 in 1 mL NS (n=5) or […] SB 328437 in 1 mL NS (n=5). Animals were then hemorrhaged 2% TBV every 5 minutes until death.
# [4] = solubility; format: physicochemical
# [5] = molecular target: T1, CCR3 (Homo sapiens, UniProt P51677); conditions: read-out: IC50, CCR3 antagonist; cited from earlier work
# T1 sequence (P51677 1-355): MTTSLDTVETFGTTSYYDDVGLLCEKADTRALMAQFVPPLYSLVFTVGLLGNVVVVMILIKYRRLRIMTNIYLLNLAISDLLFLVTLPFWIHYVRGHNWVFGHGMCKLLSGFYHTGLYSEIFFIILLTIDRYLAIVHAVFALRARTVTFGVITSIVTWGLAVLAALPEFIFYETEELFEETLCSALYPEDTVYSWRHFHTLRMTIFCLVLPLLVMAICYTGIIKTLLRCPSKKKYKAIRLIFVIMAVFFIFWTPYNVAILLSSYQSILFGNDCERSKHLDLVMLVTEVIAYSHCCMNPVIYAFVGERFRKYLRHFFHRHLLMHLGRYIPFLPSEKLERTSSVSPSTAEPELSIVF
# [6] = molecular target: CCR2 (Homo sapiens, UniProt P41597); conditions: read-out: Kd, binding affinity of CCL2 for CCR2; cited from earlier work
# CCR2, sequence (P41597 whole entry, species assumed): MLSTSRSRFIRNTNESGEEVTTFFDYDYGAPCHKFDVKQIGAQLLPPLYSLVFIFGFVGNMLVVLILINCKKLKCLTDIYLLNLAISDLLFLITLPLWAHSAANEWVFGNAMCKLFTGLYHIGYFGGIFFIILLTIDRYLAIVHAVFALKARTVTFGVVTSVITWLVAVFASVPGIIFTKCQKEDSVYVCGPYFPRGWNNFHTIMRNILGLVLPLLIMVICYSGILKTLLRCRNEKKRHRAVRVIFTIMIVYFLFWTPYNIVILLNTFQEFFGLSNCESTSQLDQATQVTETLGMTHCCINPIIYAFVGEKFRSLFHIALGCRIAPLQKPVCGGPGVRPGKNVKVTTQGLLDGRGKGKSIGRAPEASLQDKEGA
# [7] = molecular target: T1, CCR3; conditions: cited from earlier work
# [8] = test system: CCR5; conditions: cited from earlier work
# [9] = test system: hemorrhagic shock; experiment: Example 1 first series: 30 min hemorrhagic shock, fluid resuscitation until t=90 min; format: in vivo, rat; conditions: 5.5 μmol/kg Maraviroc at t=30 min, vs vehicle or 1.1 INCB3284
# Description: In vivo animal experiments. All procedures were performed in accordance with the National Institutes of Health Guidelines for Use of Laboratory Animals and were approved by the University of South Florida Institutional Animal Care and Use Committeee (IS00008139). Male Sprague-Dawley rats (300-400 g, Envigo, Indianapolis, IN, USA). were anesthetized with 1.7% isoflurane via nose-cone inhalation with the SomnoSuite anesthesia system (Kent Scientific, Torrington, CT, USA). […] The left femoral artery was isolated and cannulated with a 24-gauge peripheral intravenous catheter to allow for blood withdrawal, hemodynamic monitoring, drug administration, and fluid resuscitation. Hemodynamics were continuously monitored with the SurgivetV6400 blood pressure monitor (Med-Electronics, Beltsville, MD, USA), and blood pressures and heart rate were recorded at 1-10 min intervals. All animals were observed over a 10 min period to ensure hemodynamic stability before start of the experiments. All experiments were performed randomized in alternating order. […] Physiol Res 2019; 68(4):675-679; Nassoiy S P, et al., Effects of the Kv7 voltage-activated potassium channel inhibitor linopirdine in rat models of haemorrhagic shock. Clin Exp Pharmacol Physiol 2018; Nassoiy S P, et al., Kv7 voltage-activated potassium channel inhibitors reduce fluid resuscitation requirements after hemorrhagic shock in rats. J Biomed Sci 2017; 24(1):8; Bach H Ht, et al., Proteasome inhibition prolongs survival during lethal hemorrhagic shock in rats. J Trauma Acute Care Surg 2013; 74(2):499-507; Bach H Ht, et al., Chemokine (C-X-C motif) receptor 4 and atypical chemokine receptor 3 regulate vascular alpha(1)-adrenergic receptor function. Mol Med 2014; 20:435-447), with slight modifications. In brief, rats were hemorrhaged to a mean arterial blood pressure (MAP) of less than or equal to 30 mmHg for a period of 30 minutes. At the end of the HS period (t=30 min), animals were injected with either vehicle (1 mL LR) or drug in 1 mL LR, followed by fluid resuscitation with 1 mL bolus injections of LR to maintain a systolic blood pressure (SBP) of 90 mmHg or a MAP of 60 mmHg. To avoid fluid overload, bolus injections of LR were limited to 1 mL/min. […] Animals were then resuscitated until t=90 min. At t=0, 15, 30, 60 and 90 min, blood samples were obtained, and plasma prepared. Samples were stored at -70° C. until further processing. At t=90 min, animals were euthanized (isoflurane inhalation, bilateral pneumothorax).
compound,measurement,setting,value
COC(=O)[C@H](Cc1ccc([N+](=O)[O-])cc1)NC(=O)c1cccc2ccccc12 [SB328437],Fluid requirements to achieve the MAP target vs vehicle,[1]; 0.25 μmol/kg at t=30 min,comparable
same,MAP vs vehicle treated animals,[1]; 0.25 μmol/kg at t=30 min,indistinguishable
same,fluid requirements (mean±SE),"[1]; 0.25 μmol/kg at t=30 min, until t=90 min",53 ± 7 mL/kg
same,MAP at the end of the resuscitation period (t=80-90 min),[1]; 1.1 μmol/kg at t=30 min,higher
same,reduction of fluid requirements,"[1]; 1.1 μmol/kg at t=30 min, until t=90 min, vs vehicle",63±4%
same,fluid requirements (mean±SE),"[1]; 1.1 μmol/kg at t=30 min, until t=90 min, p<0.05 vs. vehicle",19.5 ± 2 mL/kg
same,median survival time,[2]; 1.1 μmol/kg SB328437 or 5 μmol/kg INCB3284 at t=60 min,290 min
same,animals that survived the resuscitation period,"[2]; 1.1 μmol/kg SB328437 or 5 μmol/kg INCB3284 at t=60 min, until t=300 min, n=6",3 of 6
same,fluid requirements,[2]; 1.1 μmol/kg at t=60 min,could not be significantly reduced
same,MAP during fluid resuscitation,"[2]; 1.1 μmol/kg at t=60 min, between t=140-200 min",lower
same,MAP during subsequent 2% TBV hemorrhages in 5 min intervals,[3]; no fluid resuscitation,indistinguishable among groups
same,median survival time,[3]; not significantly different between groups,64 min
same,solubility,[4],limited
same,IC50,[5],4.5 nM
CCL2: principal endogenous agonist of chemokine (C-C motif) receptor 2 (CCR2),Kd,[6],~0.5 nM
same,binding affinity of CCL2 for CCR3 lower than for CCR2,[7],more than 100 fold
same,binding affinity of CCL2 for CCR5 lower than for CCR2,[8],more than 100 fold
Maraviroc,effect on fluid requirements,[9],did not affect fluid requirements
